Data as given in ChEMBL document CHEMBL5291721, “A preclinical secondary pharmacology resource illuminates target-adverse drug reaction associations of marketed drugs” (Nat Commun, 2023).

Tests used:
[1] = biological target: T1, Alpha-2A adrenergic receptor (Homo sapiens, UniProt P08913); assay type: functional, cell-based
T1 sequence (P08913 whole entry): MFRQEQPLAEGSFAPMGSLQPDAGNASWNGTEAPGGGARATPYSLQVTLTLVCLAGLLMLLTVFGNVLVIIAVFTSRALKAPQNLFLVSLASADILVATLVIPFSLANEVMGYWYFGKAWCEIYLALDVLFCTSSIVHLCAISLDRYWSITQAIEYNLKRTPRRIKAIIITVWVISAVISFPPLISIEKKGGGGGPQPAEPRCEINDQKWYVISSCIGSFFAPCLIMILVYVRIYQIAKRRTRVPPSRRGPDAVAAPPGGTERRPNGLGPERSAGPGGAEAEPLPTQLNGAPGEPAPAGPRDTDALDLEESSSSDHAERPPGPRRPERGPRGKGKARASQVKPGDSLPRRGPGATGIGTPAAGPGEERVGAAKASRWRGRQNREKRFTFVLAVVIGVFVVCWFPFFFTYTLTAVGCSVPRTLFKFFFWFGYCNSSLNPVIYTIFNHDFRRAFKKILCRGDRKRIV

[2] = biological target: Gamma-aminobutyric acid receptor subunit alpha-1 (Rattus norvegicus, UniProt P62813)
[3] = biological target: Delta-type opioid receptor (Homo sapiens, UniProt P41143)
[4] = biological target: T2, 5-hydroxytryptamine receptor 3A (Homo sapiens, UniProt P46098); assay type: functional
T2 sequence (P46098 whole entry): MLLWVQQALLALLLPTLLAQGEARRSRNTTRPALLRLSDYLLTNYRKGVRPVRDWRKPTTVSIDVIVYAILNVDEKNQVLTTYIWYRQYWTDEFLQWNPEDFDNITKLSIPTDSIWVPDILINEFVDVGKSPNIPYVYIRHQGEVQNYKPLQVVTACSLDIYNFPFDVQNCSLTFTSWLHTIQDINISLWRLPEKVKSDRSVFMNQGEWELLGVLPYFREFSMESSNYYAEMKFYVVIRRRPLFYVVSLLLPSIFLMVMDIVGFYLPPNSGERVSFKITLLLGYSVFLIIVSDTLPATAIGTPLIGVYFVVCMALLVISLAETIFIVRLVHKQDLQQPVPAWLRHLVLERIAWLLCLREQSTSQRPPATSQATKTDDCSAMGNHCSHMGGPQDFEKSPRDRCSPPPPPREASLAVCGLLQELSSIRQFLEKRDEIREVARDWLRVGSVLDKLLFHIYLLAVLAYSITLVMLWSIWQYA

[5] = biological target: T3, Amine oxidase [flavin-containing] A (Homo sapiens, UniProt P21397); assay type: functional
T3 sequence (P21397 whole entry): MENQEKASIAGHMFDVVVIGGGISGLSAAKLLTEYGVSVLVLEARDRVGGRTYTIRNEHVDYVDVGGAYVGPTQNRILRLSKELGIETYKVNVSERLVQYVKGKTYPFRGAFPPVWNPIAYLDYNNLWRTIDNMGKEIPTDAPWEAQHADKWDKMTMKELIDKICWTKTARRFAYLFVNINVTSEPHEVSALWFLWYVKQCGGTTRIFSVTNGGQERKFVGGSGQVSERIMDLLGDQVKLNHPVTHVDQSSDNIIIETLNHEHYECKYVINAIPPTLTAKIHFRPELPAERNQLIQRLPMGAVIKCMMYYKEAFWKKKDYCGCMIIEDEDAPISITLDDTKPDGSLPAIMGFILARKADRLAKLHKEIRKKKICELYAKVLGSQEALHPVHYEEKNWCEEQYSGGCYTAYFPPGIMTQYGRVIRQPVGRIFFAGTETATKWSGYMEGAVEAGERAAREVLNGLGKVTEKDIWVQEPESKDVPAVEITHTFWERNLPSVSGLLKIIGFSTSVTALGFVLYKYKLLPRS

[6] = biological target: T4, Neuropeptide Y receptor type 1 (Homo sapiens, UniProt P25929)
T4 sequence (P25929 whole entry): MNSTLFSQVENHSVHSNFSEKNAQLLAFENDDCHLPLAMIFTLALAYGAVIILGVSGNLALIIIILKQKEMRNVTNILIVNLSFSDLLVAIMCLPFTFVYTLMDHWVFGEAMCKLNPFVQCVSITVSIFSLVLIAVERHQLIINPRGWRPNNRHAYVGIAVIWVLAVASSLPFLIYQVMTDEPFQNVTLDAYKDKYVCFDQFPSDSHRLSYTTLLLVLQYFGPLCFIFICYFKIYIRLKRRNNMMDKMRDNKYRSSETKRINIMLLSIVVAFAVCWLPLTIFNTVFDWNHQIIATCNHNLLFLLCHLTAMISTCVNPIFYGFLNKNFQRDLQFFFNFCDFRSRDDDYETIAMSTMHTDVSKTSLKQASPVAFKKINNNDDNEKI

[7] = biological target: T5, 5-hydroxytryptamine receptor 2C (Homo sapiens, UniProt P28335)
T5 sequence (P28335 whole entry): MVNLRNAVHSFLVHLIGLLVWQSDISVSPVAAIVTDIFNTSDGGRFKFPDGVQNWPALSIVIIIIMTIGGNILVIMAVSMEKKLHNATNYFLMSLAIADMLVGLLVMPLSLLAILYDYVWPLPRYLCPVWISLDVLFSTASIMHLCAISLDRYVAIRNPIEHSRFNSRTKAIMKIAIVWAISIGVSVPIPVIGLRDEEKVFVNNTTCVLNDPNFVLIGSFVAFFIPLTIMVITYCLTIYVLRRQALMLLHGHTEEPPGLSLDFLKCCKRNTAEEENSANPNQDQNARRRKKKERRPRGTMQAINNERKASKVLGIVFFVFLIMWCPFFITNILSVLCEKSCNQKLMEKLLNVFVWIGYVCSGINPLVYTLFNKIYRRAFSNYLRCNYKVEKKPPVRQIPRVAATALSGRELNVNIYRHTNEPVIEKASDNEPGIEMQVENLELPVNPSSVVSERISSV

Cannabinoid receptor 1 = Cannabinoid receptor 1 (Homo sapiens, UniProt P21554); assay type: functional, cell-based
[8] = biological target: Kappa-type opioid receptor (Homo sapiens, UniProt P41145)
Vasopressin V1a receptor = Vasopressin V1a receptor (Homo sapiens, UniProt P37288)
Further: assay procedure not described here.

Chain of Kappa-type opioid receptor (P41145 whole entry): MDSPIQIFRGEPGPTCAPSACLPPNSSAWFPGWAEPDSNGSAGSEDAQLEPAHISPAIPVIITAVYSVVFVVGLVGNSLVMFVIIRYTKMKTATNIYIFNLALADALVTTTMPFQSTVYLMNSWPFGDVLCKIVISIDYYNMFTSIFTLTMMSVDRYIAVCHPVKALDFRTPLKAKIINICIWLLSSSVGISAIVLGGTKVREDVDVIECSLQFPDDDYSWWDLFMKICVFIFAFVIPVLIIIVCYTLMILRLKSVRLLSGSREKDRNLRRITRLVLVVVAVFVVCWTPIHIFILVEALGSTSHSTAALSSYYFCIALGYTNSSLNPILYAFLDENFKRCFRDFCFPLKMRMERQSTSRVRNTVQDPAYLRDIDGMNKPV
Chain of Vasopressin V1a receptor (P37288 whole entry): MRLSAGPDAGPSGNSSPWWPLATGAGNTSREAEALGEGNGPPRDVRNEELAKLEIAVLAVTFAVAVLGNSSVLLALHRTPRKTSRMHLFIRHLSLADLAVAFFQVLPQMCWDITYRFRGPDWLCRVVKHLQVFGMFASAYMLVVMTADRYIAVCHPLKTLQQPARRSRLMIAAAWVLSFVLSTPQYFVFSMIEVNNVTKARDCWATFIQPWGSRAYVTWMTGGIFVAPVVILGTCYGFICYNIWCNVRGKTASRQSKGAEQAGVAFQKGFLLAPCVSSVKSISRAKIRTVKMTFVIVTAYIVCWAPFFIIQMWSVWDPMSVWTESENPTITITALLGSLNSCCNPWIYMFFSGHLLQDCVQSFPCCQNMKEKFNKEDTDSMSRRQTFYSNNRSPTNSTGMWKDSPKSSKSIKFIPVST
Chain of Delta-type opioid receptor (P41143 whole entry): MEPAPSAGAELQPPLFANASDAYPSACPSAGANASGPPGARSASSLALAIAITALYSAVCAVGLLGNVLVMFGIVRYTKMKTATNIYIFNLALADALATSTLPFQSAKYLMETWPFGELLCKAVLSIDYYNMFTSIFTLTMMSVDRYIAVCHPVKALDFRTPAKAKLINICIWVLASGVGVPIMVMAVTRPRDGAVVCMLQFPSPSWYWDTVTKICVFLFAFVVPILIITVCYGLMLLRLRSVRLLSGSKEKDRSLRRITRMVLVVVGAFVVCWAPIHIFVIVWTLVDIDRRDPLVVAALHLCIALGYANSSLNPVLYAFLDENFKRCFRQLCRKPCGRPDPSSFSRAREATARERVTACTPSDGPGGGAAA
Chain of Cannabinoid receptor 1 (P21554 whole entry): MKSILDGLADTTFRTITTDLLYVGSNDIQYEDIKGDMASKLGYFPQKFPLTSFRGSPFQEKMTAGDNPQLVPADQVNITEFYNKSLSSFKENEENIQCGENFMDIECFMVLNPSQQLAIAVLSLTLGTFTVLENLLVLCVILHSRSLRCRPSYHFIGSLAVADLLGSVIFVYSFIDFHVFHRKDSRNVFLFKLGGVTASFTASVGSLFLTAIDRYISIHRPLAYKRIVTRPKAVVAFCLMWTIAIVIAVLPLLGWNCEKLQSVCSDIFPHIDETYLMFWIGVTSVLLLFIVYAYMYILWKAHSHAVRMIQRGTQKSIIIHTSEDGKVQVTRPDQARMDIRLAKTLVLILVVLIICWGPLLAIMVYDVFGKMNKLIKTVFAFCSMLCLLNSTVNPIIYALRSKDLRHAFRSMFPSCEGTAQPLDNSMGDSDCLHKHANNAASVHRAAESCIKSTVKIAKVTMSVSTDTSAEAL
Chain of Gamma-aminobutyric acid receptor subunit alpha-1 (P62813 whole entry): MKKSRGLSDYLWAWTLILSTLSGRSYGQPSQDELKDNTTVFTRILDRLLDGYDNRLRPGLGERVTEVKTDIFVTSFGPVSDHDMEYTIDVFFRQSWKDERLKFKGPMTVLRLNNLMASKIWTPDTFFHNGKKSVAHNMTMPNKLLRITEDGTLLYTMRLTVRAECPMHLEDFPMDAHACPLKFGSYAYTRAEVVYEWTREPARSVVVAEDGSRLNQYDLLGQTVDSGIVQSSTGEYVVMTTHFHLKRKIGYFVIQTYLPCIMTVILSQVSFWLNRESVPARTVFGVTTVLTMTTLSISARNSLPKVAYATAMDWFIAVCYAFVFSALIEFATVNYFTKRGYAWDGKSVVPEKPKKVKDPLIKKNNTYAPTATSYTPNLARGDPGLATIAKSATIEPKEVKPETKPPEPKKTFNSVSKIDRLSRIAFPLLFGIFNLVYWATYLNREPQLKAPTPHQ

Compound	AC50 [1] [µM]	AC50 [2] [µM]	AC50 [3] [µM]	AC50 [4] [µM]	AC50 [5] [µM]	AC50 [6] [µM]	AC50 [7] [µM]	AC50 (Cannabinoid receptor 1) [µM]	AC50 [8] [µM]	AC50 (Vasopressin V1a receptor) [µM]
COc1ccc2c(c1)c(CC(=O)OCC(=O)O)c(C)n2C(=O)c1ccc(Cl)cc1 [ACEMETACIN]	> 30	> 30	> 30	> 30	> 30	> 30	> 30	> 30	> 30	–
CCCCN1CCCCC1C(=O)Nc1c(C)cccc1C (stereo not given) [BUPIVACAINE]	> 30	> 30	> 30	> 30	> 30	> 30	> 30	> 30	> 30	–
CC(C)(Oc1ccc(C2CC2(Cl)Cl)cc1)C(=O)O (stereo not given) [CIPROFIBRATE]	> 30	> 30	> 30	> 30	> 30	> 30	> 30	> 30	> 30	–
Cc1c(O)c(=O)ccn1C [DEFERIPRONE]	> 30	> 30	> 30	> 30	> 30	> 30	> 30	> 30	> 30	–
CC(=O)O[C@@]12CO[C@@H]1C[C@H](O)[C@@]1(C)C(=O)[C@H](O)C3=C(C)[C@@H](OC(=O)[C@H](O)[C@@H](NC(=O)OC(C)(C)C)c4ccccc4)C[C@@](O)([C@@H](OC(=O)c4ccccc4)[C@H]21)C3(C)C [DOCETAXEL ANHYDROUS]	> 30	> 30	> 30	> 30	> 30	> 30	> 30	–	> 30	–
CCNC(C)Cc1cccc(C(F)(F)F)c1 (stereo not given) [FENFLURAMINE]	–	> 10	> 30	> 30	> 10	> 30	–	> 30	13.4	> 10
COc1c(N2CCNC(C)C2)c(F)cc2c(=O)c(C(=O)O)cn(C3CC3)c12 (stereo not given) [GATIFLOXACIN]	> 10	> 10	> 30	> 30	> 10	> 10	> 30	–	> 10	–
CCN1CCC[C@H]1CNC(=O)c1cc(S(N)(=O)=O)ccc1OC [LEVOSULPIRIDE]	> 10	> 10	> 30	> 30	> 10	–	> 30	> 30	> 10	> 30
Cc1cccc(C)c1NC(=O)C1CCCCN1C (stereo not given) [MEPIVACAINE]	> 30	–	> 30	> 30	> 30	> 30	> 30	> 30	> 30	–
COc1ccccc1OCC(O)COC(N)=O (stereo not given) [METHOCARBAMOL]	> 10	> 10	> 30	> 30	> 10	> 10	> 30	–	> 10	–
C[C@]12CCC(=O)C=C1CC[C@@H]1[C@@H]2CC[C@@]2(C)[C@H]1CC[C@]2(C)O [METHYLTESTOSTERONE]	> 30	> 30	> 30	> 30	> 30	> 30	> 30	> 30	> 30	–
COc1c(C)c2c(c(O)c1C/C=C(\C)CCC(=O)OCCN1CCOCC1)C(=O)OC2 [MYCOPHENOLATE MOFETIL]	> 30	> 30	> 30	> 30	> 30	> 30	> 30	> 30	> 30	–
CCN(CC)CCOC(=O)c1ccc(N)cc1 [PROCAINE]	> 10	> 10	> 30	22	16	> 30	> 30	> 30	> 10	–
CCCOc1ccc(C(=O)OCCN(CC)CC)cc1N [PROPARACAINE]	> 30	–	> 30	> 30	11	> 30	> 30	> 30	> 30	–
Nc1nc2ccc(OC(F)(F)F)cc2s1 [RILUZOLE]	> 30	–	> 30	> 30	> 30	> 30	> 30	> 30	> 30	> 30
C#CCN(C)[C@H](C)Cc1ccccc1 [SELEGILINE]	> 10	> 10	> 30	> 30	–	> 10	> 30	> 30	7.8	–
Cc1c(C(=O)Nc2ccc(N3C[C@@H](C)O[C@@H](C)C3)nc2)cccc1-c1ccc(OC(F)(F)F)cc1 [SONIDEGIB]	–	> 10	> 10	> 10	–	> 30	> 30	–	> 10	> 10
CN[C@@H]1[C@H](O)[C@H](NC)[C@H]2O[C@@]3(O)C(=O)C[C@@H](C)O[C@H]3O[C@@H]2[C@H]1O [SPECTINOMYCIN]	> 10	> 10	> 30	> 30	> 10	> 10	> 30	–	> 10	–
CC[C@]1(O)C[C@@H]2CN(CCc3c([nH]c4ccccc34)[C@@](C(=O)OC)(c3cc4c(cc3OC)N(C)[C@H]3[C@@](O)(C(N)=O)[C@H](O)[C@]5(CC)C=CCN6CC[C@]43[C@@H]65)C2)C1 [VINDESINE]	> 30	> 30	> 30	> 30	> 30	> 30	> 30	–	> 30	–
